Assay results reported in US20140011889A1, “Resveratrol-Containing Compositions and Methods of Use for Cardiac-Related Diseases” (Resveratrol Partners, LLC, priority 2010, published 2014).

Key:
rhabdomyosarcoma cells = conditions: low dosage; cited from earlier work
injected tumors = conditions: mice with injected tumors; cited from earlier work
SIRT1 = target: T1, SIRT1 (Homo sapiens, UniProt Q96EB6); experiment: SIRT1 Fluorescent Activity Assay/Drug Discovery Kit AK-555; type: biochemical; conditions: capsules stored under ambient conditions
T1 sequence (Q96EB6 1-747): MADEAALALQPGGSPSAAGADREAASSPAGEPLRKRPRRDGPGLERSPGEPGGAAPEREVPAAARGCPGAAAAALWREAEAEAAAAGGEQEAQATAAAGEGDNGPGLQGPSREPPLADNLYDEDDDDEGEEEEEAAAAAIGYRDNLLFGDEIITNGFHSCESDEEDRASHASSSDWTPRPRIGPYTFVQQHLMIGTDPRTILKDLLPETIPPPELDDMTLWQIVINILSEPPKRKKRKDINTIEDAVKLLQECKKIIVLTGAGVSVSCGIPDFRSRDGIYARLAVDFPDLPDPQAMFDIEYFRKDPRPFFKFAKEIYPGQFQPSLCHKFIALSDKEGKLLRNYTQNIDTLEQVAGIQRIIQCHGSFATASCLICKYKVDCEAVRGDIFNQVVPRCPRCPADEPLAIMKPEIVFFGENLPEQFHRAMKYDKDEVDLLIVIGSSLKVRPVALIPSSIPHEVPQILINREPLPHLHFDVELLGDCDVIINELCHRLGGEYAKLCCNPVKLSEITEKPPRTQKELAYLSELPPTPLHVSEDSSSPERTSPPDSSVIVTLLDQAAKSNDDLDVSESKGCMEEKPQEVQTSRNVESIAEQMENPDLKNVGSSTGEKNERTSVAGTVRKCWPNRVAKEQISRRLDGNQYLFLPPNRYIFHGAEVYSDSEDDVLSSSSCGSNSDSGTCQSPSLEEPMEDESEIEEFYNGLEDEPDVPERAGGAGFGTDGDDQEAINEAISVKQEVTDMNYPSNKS

breast cancer cells = conditions: cited from earlier work
cancer risk = conditions: 1100 IU, 4-year period, women in Nebraska; cited from earlier work
miR-20b = miR-20b quantification in I/R heart, Taqman real-time PCR; type: in vivo, rat; conditions: I/R alone: down regulation […]; FIG. 17C
Text: Animals. […] Male Sprague-Dawley rats weighing between 250 and 300 g were fed ad libitum regular rat chow with free access to water until the start of the experimental procedure.

reactive oxygen species = experiment: Intracellular ROS by CM-H2DCFDA fluorescence in I/R heart; type: in vivo, rat; conditions: IR heart, FIG. 19
Experimental: The dye was injected intravenously, prior to induction of ischemia/reperfusion, and at the end of the experiments, the level of fluorescence was determined for the generation of ROS by measuring the fluorescent oxidation product CM-DCF in the cytosol, at an excitation wavelength of 480 nm and an emission wavelength of 520 nm.

O=P(O)(O)O[C@H]1[C@H](OP(=O)(O)O)[C@@H](OP(=O)(O)O)[C@H](OP(=O)(O)O)[C@@H](OP(=O)(O)O)[C@H]1OP(=O)(O)O [IP6, (2,3,4,5,6-pentaphosphonooxycyclohexyl)dihydrogen phosphate]
suppression of growth of rhabdomyosarcoma cells (rhabdomyosarcoma cells): 50% | tumor size, times smaller than non-treated mice (injected tumors): 50 times

O=c1c(O)c(-c2ccc(O)c(O)c2)oc2cc(O)cc(O)c12 [quercetin]
biological activity of encapsulated quercetin (ability to stimulate SIRT1 activity) (SIRT1): maintained biological activity

C=C1CC[C@H](O)C/C1=C/C=C1\CCC[C@]2(C)[C@@H]([C@H](C)CCCC(C)C)CC[C@@H]12 [vitamin D3, cholecalciferol]
decline of number of breast cancer cells (breast cancer cells; higher concentrations of vitamin D3): about 25% | decline of breast tumor cell numbers (breast cancer cells; low-dose vitamin D3): does not reduce | reduction in cancer risk (cancer risk): 60-77%

CC(C)=CCC/C(C)=C/CC/C(C)=C/CC[C@]1(C)CCc2cc(O)c(C)c(C)c2O1 [γ-tocotrienol]
miR-20b expression in pretreated I/R hearts (miR-20b): 9.4 fold | intracellular ROS concentration compared to control (reactive oxygen species): lowered
